Data published in patent US9006440B2, “Furopyridine derivatives” (Merck Patent GmbH, priority 2010, dated 2015).

What was measured:
Format in all cases: biochemical
Syk = biological target: T1, Syk (Homo sapiens, UniProt P43405); assay: Syk enzyme assay (SYK flash plate assay / Caliper mobility shift)
T1 construct: purchased BPS Bioscience, CA, USA
Summary of the method: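 Flashplate format: 2.5 nM SYK, 400 nM biotinylated peptide, 10 μM ATP with 33P-ATP, pH 7.5, 1 h at 30 °C; radioactivity read, staurosporine background. Caliper format: 90 min at 25 °C, mobility-shift read of substrate-to-product conversion; IC50 from dose-response curve.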

Zap70 = biological target: T2, Zap70 (Homo sapiens, UniProt P43403); assay: ZAP-70 enzymatic assay (Caliper LifeSciences technology)
T2 construct: purchased BPS Bioscience, CA, USA
T2 sequence (P43403 1-619): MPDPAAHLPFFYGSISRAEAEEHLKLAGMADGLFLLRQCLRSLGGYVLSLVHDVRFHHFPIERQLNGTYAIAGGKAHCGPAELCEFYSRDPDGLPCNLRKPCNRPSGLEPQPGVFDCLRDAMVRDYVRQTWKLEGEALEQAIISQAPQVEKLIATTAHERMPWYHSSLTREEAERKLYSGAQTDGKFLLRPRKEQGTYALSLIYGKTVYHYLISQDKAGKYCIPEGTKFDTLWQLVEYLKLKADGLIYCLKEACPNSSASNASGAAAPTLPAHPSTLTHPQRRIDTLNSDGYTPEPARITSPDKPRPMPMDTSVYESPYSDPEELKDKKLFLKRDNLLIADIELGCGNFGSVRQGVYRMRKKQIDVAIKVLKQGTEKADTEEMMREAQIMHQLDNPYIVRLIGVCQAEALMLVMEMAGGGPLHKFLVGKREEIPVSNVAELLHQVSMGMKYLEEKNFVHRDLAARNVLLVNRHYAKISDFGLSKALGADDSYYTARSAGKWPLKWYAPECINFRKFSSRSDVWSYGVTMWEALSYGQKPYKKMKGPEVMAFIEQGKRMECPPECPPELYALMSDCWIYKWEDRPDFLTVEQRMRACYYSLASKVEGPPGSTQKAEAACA
Description: (§1) The assays described here are performed on the Caliper Life Sciences LC3000 system This technology provides data on enzyme activity via measurement of the relative amounts of phosphorylated or unphosphorylated fluorescently labelled substrate peptide at the end of an enzymatic reaction. These different states of peptide are resolved by applying a potential difference across the sample. The presence of the charged phosphate group on the product (as opposed to the substrate) causes a different peptide mobility between the two peptides. This is visualized by excitation of the fluorescent label on the substrate and product peptides and represented as peaks within the analysis software.
(§2) In order to measure inhibitor activity of kinase inhibitors on this technology, a TTP Mosquito liquid handling instrument is used to place 0.25 ul of the appropriate concentration of inhibitor in 100% DMSO (for a dose response curve calculation) into each well of a 384-well plate. To this reaction components are added to a final volume of 25 ul. The table below indicates the sequences and concentrations for the assays described in this report. Standard components are 1 mM DTT (Sigma, D0632), 1 mM MgCl2 (Sigma, M1028), 100 mM HEPES pH 7.5 (Calbiochem, 391338), 0.015% Brij-35 (Sigma, B4184).
(§3) The reaction is incubated for 90 min at 25 C, and then stopped by the addition of 70 ul of Stop buffer (100 mM HEPES pH 7.5, 0.015% Brij-35, 10 mM EDTA (Sigma, E7889)).
(§4) The plate is read on a Caliper LC 3000 in an Off-Chip mobility shift assay format, on a 12-sipper chip. Unphosphorylated substrate and phosphorylated product peptide resolve as separate peaks allowing direct measurement of percentage of conversion of substrate to product. The percent conversion can be plotted against concentration of inhibitor to produce a sigmoidal dose response curve, from which an IC50 can be calculated using GeneData Condoseo or a similar product.

KDR = biological target: T3, KDR (Homo sapiens, UniProt P35968); assay: KDR enzymatic assay (Caliper LifeSciences technology)
T3 construct: purchased BPS Bioscience, CA, USA
T3 sequence (P35968 20-1356): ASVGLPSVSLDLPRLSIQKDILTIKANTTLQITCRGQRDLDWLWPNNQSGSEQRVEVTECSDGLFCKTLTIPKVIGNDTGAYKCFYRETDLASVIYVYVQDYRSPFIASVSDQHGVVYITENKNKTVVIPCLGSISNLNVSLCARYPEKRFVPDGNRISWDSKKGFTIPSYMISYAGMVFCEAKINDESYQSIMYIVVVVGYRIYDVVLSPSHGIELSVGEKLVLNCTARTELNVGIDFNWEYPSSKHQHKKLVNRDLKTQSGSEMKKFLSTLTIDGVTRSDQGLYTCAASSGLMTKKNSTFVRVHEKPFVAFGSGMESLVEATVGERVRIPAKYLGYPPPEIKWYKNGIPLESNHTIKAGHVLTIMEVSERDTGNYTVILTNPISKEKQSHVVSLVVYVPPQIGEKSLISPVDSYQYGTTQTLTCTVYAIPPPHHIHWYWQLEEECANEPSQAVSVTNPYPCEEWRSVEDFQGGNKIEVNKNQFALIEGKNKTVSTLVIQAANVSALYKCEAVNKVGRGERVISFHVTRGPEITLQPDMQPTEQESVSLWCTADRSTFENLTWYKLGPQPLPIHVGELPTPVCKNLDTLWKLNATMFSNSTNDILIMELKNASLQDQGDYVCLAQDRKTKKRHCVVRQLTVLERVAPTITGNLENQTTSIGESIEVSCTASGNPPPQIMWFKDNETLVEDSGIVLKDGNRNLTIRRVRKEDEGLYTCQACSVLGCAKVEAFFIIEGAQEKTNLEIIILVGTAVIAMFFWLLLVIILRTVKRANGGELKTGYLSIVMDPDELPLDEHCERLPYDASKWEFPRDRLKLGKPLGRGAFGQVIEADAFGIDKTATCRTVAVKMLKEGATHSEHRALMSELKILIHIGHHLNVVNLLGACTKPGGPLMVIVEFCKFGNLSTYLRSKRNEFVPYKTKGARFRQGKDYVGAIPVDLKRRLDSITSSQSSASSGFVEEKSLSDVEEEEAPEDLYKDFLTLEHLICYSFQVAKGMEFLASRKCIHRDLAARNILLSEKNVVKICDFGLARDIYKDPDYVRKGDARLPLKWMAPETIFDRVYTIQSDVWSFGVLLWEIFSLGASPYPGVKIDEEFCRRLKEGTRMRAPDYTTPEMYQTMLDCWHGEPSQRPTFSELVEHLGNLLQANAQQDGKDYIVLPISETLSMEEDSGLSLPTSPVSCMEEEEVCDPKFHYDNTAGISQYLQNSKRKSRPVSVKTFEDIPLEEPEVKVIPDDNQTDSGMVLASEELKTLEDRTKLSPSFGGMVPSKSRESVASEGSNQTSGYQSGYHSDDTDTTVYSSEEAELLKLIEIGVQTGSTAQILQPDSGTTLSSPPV
Summary of the method: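 Off-chip mobility-shift assay measuring conversion of a fluorescently labelled peptide substrate, in 100 mM HEPES pH 7.5, 1 mM DTT, 1 mM MgCl2 and 0.015% Brij-35. Reactions ran 90 min at 25 C and were stopped with EDTA. IC50s were derived from percent-conversion dose-response curves.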

SRC = biological target: T4, SRC (Homo sapiens, UniProt P12931); assay: Src enzymatic assay (Caliper LifeSciences technology)
T4 construct: purchased Carna Bioscience, Kobe, Japan
T4 sequence (P12931 whole entry): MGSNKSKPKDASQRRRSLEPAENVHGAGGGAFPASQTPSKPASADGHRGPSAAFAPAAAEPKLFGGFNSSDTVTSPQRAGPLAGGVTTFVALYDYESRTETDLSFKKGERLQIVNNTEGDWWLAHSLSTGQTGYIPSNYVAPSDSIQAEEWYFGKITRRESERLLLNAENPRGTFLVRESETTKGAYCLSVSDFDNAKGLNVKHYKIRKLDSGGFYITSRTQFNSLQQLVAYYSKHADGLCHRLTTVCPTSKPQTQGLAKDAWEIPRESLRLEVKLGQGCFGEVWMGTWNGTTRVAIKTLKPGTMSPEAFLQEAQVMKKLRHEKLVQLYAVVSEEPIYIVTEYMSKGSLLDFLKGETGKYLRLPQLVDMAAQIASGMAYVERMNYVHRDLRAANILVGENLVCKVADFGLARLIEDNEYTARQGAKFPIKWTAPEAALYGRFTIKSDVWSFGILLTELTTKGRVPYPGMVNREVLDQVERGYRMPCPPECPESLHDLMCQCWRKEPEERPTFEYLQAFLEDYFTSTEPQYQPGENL
Description: as §1, §2, §3, §4

BTK = biological target: T5, BTK (Homo sapiens, UniProt Q06187); assay: BTK enzymatic assay (Caliper LifeSciences technology)
T5 construct: purchased Carna Bioscience, Kobe, Japan
T5 sequence (Q06187 whole entry): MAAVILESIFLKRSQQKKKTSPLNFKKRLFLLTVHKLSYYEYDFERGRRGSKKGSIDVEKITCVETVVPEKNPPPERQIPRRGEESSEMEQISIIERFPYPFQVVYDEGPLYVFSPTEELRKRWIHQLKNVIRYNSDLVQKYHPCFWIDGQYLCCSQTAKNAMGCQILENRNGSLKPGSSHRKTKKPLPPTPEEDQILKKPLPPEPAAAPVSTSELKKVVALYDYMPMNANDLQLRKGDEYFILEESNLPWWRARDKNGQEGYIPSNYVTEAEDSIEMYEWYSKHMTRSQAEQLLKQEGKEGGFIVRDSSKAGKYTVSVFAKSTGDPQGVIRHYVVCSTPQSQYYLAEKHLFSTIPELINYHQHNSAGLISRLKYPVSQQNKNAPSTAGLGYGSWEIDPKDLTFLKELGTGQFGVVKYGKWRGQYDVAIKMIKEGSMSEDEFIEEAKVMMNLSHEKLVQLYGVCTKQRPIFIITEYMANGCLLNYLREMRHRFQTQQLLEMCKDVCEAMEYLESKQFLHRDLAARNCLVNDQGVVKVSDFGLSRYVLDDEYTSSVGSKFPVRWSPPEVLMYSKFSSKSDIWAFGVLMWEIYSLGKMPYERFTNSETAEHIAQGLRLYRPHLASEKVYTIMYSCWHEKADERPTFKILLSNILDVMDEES
Description: as §1, §2, §3, §4

IC50 (Syk)	IC50 (Zap70)	IC50 (KDR)	IC50 (SRC)	IC50 (BTK)	Structure (SMILES)
0.3 to 3 µM	3 to 50 µM	–	–	–	COc1cc(-c2cc3nccc(-c4ccnn4C)c3o2)cc(OC)c1OC [Compound C64]
< 0.3 µM	3 to 50 µM	< 0.3 µM	0.3 to 3 µM	3 to 50 µM	COc1cc(-c2cc3nccc(-c4cn[nH]c4)c3o2)cc(OC)c1OC [Compound C72]
0.3 to 3 µM	3 to 50 µM	0.3 to 3 µM	–	–	COc1ccc(-c2cc3nccc(-c4ccccc4)c3o2)cc1NC(=O)[C@@H]1CCCN1 [Compound C30]
< 0.3 µM	3 to 50 µM	3 to 50 µM	–	–	COc1cc(-c2cc3nccc(-c4ccc(CO)nc4)c3o2)cc(OC)c1OC [Compound C27]
< 0.3 µM	3 to 50 µM	3 to 50 µM	–	–	COc1cc(NC(=O)[C@@H]2C[C@@H](O)CN2)cc(-c2cc3nccc(-c4ccccc4)c3o2)c1 [Compound C46]
< 0.3 µM	3 to 50 µM	–	< 0.3 µM	–	COc1cc(-c2cc3nccc(-c4ccnc(NCC5CCCNC5)c4)c3o2)cc(OC)c1OC (stereo not shown) [Compound C185]
< 0.3 µM	–	0.3 to 3 µM	–	3 to 50 µM	Cn1cc(-c2ccnc3cc(-c4ccc5nc[nH]c5c4)oc23)cn1 [Compound C123]
< 0.3 µM	0.3 to 3 µM	0.3 to 3 µM	–	–	COc1cc(-c2cc3nccc(-c4ccc5[nH]nnc5c4)c3o2)cc(OC)c1OC [Compound C70]
< 0.3 µM	3 to 50 µM	0.3 to 3 µM	3 to 50 µM	–	COc1cc(-c2cc3nccc(-c4ccc5[nH]cnc5c4)c3o2)cc(OC)c1OC [Compound C60]
–	–	–	–	0.3 to 3 µM	O=C(CCl)NCc1cccc(-c2cc3nccc(-c4ccccc4)c3o2)c1 [Compound D16, 2-Chloro-N-[3-(7-phenyl-furo[3,2-b]pyridin-2-yl)-benzyl]-acetamide]
–	–	–	–	3 to 50 µM	CCC(=O)Nc1cccc(-c2cc3nccc(Oc4ccccc4)c3o2)c1 [Compound D8, N-[3-(7-Phenoxy-furo[3,2-b]pyridin-2-yl)-phenyl]-propionamide]
–	–	–	–	0.3 to 3 µM	C=CC(=O)Nc1ccc(Oc2ccnc3cc(-c4ccccc4)oc23)cc1 [Compound D22, N-[4-(2-Phenyl-furo[3,2-b]pyridin-7-yloxy)-phenyl]-acrylamide]
–	–	–	–	3 to 50 µM	C=CC(=O)Nc1cccc(-c2cc3nccc(Oc4cccc(Cl)c4)c3o2)c1 [Compound D9, N-{3-[7-(3-Chloro-phenoxy)-furo[3,2-b]pyridin-2-yl]-phenyl}-acrylamide]
–	–	–	–	0.3 to 3 µM	C=CC(=O)NCc1ccc(-c2ccnc3cc(-c4ccccc4)oc23)cc1 [Compound D25, N-[4-(2-Phenyl-furo[3,2-b]pyridin-7-yl)-benzyl]-acrylamide]
< 0.3 µM	3 to 50 µM	0.3 to 3 µM	3 to 50 µM	–	Cn1cc(-c2ccnc3cc(-c4cccc(N)c4)oc23)cn1 [Compound C29]
< 0.3 µM	0.3 to 3 µM	0.3 to 3 µM	0.3 to 3 µM	–	COc1cc(-c2cc3nccc(-c4cnn(C)c4)c3o2)ccc1O [Compound C26]
–	–	–	–	0.3 to 3 µM	C=CC(=O)Nc1cccc(Oc2ccnc3cc(-c4ccccc4)oc23)c1 [Compound D19, N-[3-(2-Phenyl-furo[3,2-b]pyridin-7-yloxy)-phenyl]-acrylamide]
0.3 to 3 µM	3 to 50 µM	0.3 to 3 µM	–	–	COCC(O)Cn1cc(-c2ccnc3cc(-c4cc(OC)c(OC)c(OC)c4)oc23)cn1 (stereo not shown) [Compound C66]
< 0.3 µM	< 0.3 µM	–	–	–	COc1cc(-c2cc3nccc(-c4cnn(Cc5ccccc5)c4)c3o2)cc(OC)c1OC [Compound C58]

The next lines start with the molecule.

Structure (SMILES)	IC50 (Syk)	IC50 (Zap70)	IC50 (KDR)	IC50 (SRC)	IC50 (BTK)
COc1cc(-c2cc3nccc(-c4cccc5[nH]ncc45)c3o2)cc(OC)c1OC [Compound A17, 7-(1H-Indazol-4-yl)-2-(3,4,5-trimethoxy-phenyl)-furo[3,2-b]pyridine]	< 0.3 µM	3 to 50 µM	0.3 to 3 µM	–	–
COc1cc(-c2cc3nccc(-c4c(OC)cccc4OC)c3o2)cc(OC)c1OC [Compound C2]	< 0.3 µM	3 to 50 µM	3 to 50 µM	0.3 to 3 µM	–
COc1cc(-c2cc3nccc(-c4ccc5c(c4)OCO5)c3o2)cc(OC)c1OC [Compound B76, 7-(Benzo[d][1,3]dioxol-5-yl)-2-(3,4,5-trimethoxyphenyl)furo[3,2-b]pyridine]	< 0.3 µM	0.3 to 3 µM	–	–	–
COc1cc(-c2cc3nccc(-c4c[nH]c5ccccc45)c3o2)cc(OC)c1OC [Compound A25, 7-(1H-Indol-3-yl)-2-(3,4,5-trimethoxy-phenyl)-furo[3,2-b]pyridine]	0.3 to 3 µM	3 to 50 µM	3 to 50 µM	3 to 50 µM	–
COc1cc(-c2cc3nccc(-c4cccc(C(=O)NC5CCCCC5N)c4)c3o2)cc(OC)c1OC (stereo not shown) [Compound A45, N-(2-Amino-cyclohexyl)-3-[2-(3,4,5-trimethoxy-phenyl)-furo[3,2-b]pyridin-7-yl]-benzamide]	< 0.3 µM	3 to 50 µM	3 to 50 µM	0.3 to 3 µM	–
COc1cc(-c2cc3nccc(-c4ccc(C(=O)O)cc4)c3o2)cc(OC)c1OC [Compound A42, 4-[2-(3,4,5-Trimethoxy-phenyl)-furo[3,2-b]pyridin-7-yl]-benzoic acid]	< 0.3 µM	0.3 to 3 µM	3 to 50 µM	3 to 50 µM	–
COc1cc(-c2cc3nccc(-c4cccc(C(=O)NCc5n[nH]c(=O)[nH]5)c4)c3o2)cc(OC)c1OC [Compound C12]	< 0.3 µM	3 to 50 µM	0.3 to 3 µM	–	–
COc1cc(-c2cc3nccc(-c4cccc(N)c4)c3o2)cc(OC)c1OC [Compound A55, 3-[2-(3,4,5-Trimethoxy-phenyl)-furo[3,2-b]pyridin-7-yl]-phenylamine]	< 0.3 µM	0.3 to 3 µM	3 to 50 µM	–	–
COc1cc(-c2cc3nccc(Nc4ccc5cn[nH]c5c4)c3o2)cc(OC)c1OC [Compound B15]	0.3 to 3 µM	3 to 50 µM	0.3 to 3 µM	3 to 50 µM	3 to 50 µM
CNC(=O)c1ccccc1Nc1ccnc2cc(-c3cc(OC)c(OC)c(OC)c3)oc12 [Compound B8, N-Methyl-2-[2-(3,4,5-trimethoxy-phenyl)-furo[3,2-b]pyridin-7-ylamino]-benzamide]	0.3 to 3 µM	–	–	0.3 to 3 µM	0.3 to 3 µM
COc1cc(-c2cc3nccc(-c4ccc(N)cc4)c3o2)cc(OC)c1OC [Compound A56, 4-[2-(3,4,5-Trimethoxy-phenyl)-furo[3,2-b]pyridin-7-yl]-phenylamine]	< 0.3 µM	0.3 to 3 µM	0.3 to 3 µM	–	–
OCc1ccc(-c2cc3nccc(-c4ccc(CO)cc4)c3o2)cc1 [Compound B44, {4-[2-(4-Hydroxymethyl-phenyl)-furo[3,2-b]pyridin-7-yl]-phenyl}-methanol]	0.3 to 3 µM	–	< 0.3 µM	–	3 to 50 µM
Cc1c(Nc2ccnc3cc(-c4ccc(CO)cc4)oc23)ccc2[nH]ccc12 [Compound B61, {4-[7-(4-Methyl-1H-indol-5-ylamino)-furo[3,2-b]pyridin-2-yl]-phenyl}-methanol]	0.3 to 3 µM	< 0.3 µM	< 0.3 µM	–	–
Nc1cccc(-c2cc3nccc(Oc4ccc(Oc5ccccc5)cc4)c3o2)c1 [Compound B79, 3-[7-(4-Phenoxyphenoxy)furo[3,2-b]pyridin-2-yl]aniline]	3 to 50 µM	–	–	–	0.3 to 3 µM
